Test [1] concerns the target T1, human full-length glucocorticoid receptor (Homo sapiens, UniProt P04150).
T1 construct: recombinantly expressed human full-length glucocorticoid receptor; purchased PanVera Co., Madison, Wis; P2816
T1 sequence (P04150 1-777): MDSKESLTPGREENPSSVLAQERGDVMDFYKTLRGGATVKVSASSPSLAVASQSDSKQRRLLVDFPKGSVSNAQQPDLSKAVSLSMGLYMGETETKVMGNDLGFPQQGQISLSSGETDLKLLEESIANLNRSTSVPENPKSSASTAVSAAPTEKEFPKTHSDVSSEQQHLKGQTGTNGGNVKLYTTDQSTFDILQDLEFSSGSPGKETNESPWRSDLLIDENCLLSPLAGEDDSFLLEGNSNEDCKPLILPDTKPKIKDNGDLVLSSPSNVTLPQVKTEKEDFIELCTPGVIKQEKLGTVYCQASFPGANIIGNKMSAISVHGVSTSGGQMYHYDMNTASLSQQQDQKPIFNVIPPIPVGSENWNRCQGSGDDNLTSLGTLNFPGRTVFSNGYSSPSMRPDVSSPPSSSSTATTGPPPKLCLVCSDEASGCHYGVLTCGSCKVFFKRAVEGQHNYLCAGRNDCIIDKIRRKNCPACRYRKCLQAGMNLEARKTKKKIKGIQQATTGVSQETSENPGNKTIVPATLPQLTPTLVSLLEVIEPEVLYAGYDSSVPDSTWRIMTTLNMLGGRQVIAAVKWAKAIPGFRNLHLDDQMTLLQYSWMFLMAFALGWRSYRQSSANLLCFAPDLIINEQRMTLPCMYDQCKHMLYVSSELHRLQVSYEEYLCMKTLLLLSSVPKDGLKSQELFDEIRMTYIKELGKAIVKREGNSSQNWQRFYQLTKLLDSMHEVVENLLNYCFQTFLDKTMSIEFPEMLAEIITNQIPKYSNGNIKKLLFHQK
In words: Glucocorticoid Receptor Binding Assay (II), fluorescence polarization competitor kit (Fluormone GS1). The following applies: cell lysate with recombinant human full-length GR. As to the method: In order to measure the binding of compounds on the glucocorticoid receptor a commercially available kit was used (Glucocorticoid receptor competitor assay kit, PanVera Co., Madison, Wis., P2816). Briefly, a cell lysate containing recombinantly expressed human full-length glucocorticoid receptor was mixed with a fluorescently labeled glucocorticoid (1 nM Fluormone GS1) in the presence or absence of test compound. After one hour at room temperature, the fluorescence polarization (FP) of the samples were measured. […] Test molecules were analyzed in the concentration range from 2.4 nM to 40 microMolar.
For orientation: In fluorescence polarisation assays a small probe gives low polarisation when free and higher when bound to something large.

Test [2] concerns the target T2, human glucocorticoid receptor (Homo sapiens, UniProt P04150).
T2 construct: purified human recombinant full-length glucocorticoid receptor (2 nM); purchased Invitrogen Part # 2893
T2 sequence (P04150 1-777): T1 sequence (P04150 1-777)
The experiment in a line: Glucocorticoid Receptor Binding Assay (I), fluorescence polarization competitor kit (Fluormone GS Red). The settings on record: purified human recombinant full-length GR. The gist of the method:
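Fluorescence polarization competition: full-length recombinant human GR (2 nM) incubated with 1 nM Fluormone GS Red plus test compound (8.5E-05 to 5 μM) for 2 h at room temperature in the dark before FP read-out.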

Test [3] concerns AP-1 induced transcriptional activity. In words: Cellular Transrepressional Assay (AP-1 luciferase reporter in A549 cells, PMA-activated). The class given is cell-based. The following applies: Homo sapiens, A549, 7 h, pAP-1-Luc, 10 ng/ml PMA, read-out: AP-1 (EC50, nM) (Cellular Transrepression Assay). The essentials: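 A549 cells stably carrying a 7×AP-1-luciferase reporter, stimulated with 10 ng/ml PMA with or without compound (0.1 nM-40 μM) for 7 h. Luciferase luminescence read 10 min after reagent addition; repression is percentage decrease of PMA-alone signal, EC50 by curve fitting.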
(In a reporter assay the amount or activity of a reporter protein is the signal.)

A value given as a limit tells only on which side of the number the result lay.

As for `CC(O)C(C)(C)C(c1ccccc1)c1ccc2c(cnn2-c2ccc(F)cc2)c1` (mixture of isomers) [Example 119, 4-(1-(4-Fluorophenyl)-1H-indazol-5-yl)-3,3-dimethyl-4-phenylbutan-2-ol], the Ki is 26 nM in test [1] and 53 nM in test [2]. Moreover, the EC50 in test [3] was above 10000 nM.
For `CC(C)(CNC(=O)NCC(F)(F)F)[C@@H](c1ccccc1)c1ccc2c(cnn2-c2ccc(F)cc2)c1` [Example 8, (S)-1-(3-(1-(4-fluorophenyl)-1H-indazol-5-yl)-2,2-dimethyl-3-phenylpropyl)-3-(2,2,2-trifluoroethyl)urea], in that order: 9 nM, 17 nM and 48 nM.
With `CC(C)(C)NC(=O)NCC(C)(C)[C@@H](c1ccccc1)c1ccc2c(cnn2-c2ccc(F)cc2)c1` [Example 9, (S)-1-tert-butyl-3-(3-(1-(4-fluorophenyl)-1H-indazol-5-yl)-2,2-dimethyl-3-phenylpropyl)urea], the Ki in test [1] was 5.6 nM; in test [2], 8.3 nM. Besides, the EC50 in test [3] stood at 29 nM.
In the case of `CC(C)CC(c1ccc2c(cnn2-c2ccc(F)cc2)c1)C(C)(C)CNC(=O)NC1CC1` (centres unmarked) [Example 26, 1-cyclopropyl-3-(3-(1-(4-fluorophenyl)-1H-indazol-5-yl)-2,2,5-trimethylhexyl)urea], the Ki came out at 8.6 nM in test [1] and 3.1 nM in test [2]. Besides, the EC50 in test [3] is 965 nM.
For `CC(C)CC(c1ccc2c(cnn2-c2ccc(F)cc2)c1)C(C)(C)CNC(=O)NC1CCC1` (centres unmarked) [Example 27, 1-cyclobutyl-3-(3-(1-(4-fluorophenyl)-1H-indazol-5-yl)-2,2,5-trimethylhexyl)urea], in that order: 6.4 nM, 4.6 nM and 219 nM.
For `CC(C)CC(c1ccc2c(cnn2-c2ccc(F)cc2)c1)C(C)(C)CNC(=O)NC(C)(C)C` (centres unmarked) [Example 28, 1-tert-butyl-3-(3-(1-(4-fluorophenyl)-1H-indazol-5-yl)-2,2,5-trimethylhexyl)urea], in that order: 4.9 nM, 4.2 nM and 21 nM.
For `CC(C)CC(c1ccc2c(cnn2-c2ccc(F)cc2)c1)C(C)(C)CNC(=O)NC(C)(C)CO` (centres unmarked) [Example 29, 1-(3-(1-(4-fluorophenyl)-1H-indazol-5-yl)-2,2,5-trimethylhexyl)-3-(1-hydroxy-2-methylpropan-2-yl)urea], in that order: 8 nM, 2.5 nM and 86 nM.
Consider `CC(C)CC(c1ccc2c(cnn2-c2ccc(F)cc2)c1)C(C)(C)CNC(=O)N1CCCC(C)(C)C1` (centres unmarked) [Example 30, N-(3-(1-(4-fluorophenyl)-1H-indazol-5-yl)-2,2,5-trimethylhexyl)-3,3-dimethylpiperidine-1-carboxamide], for which the figures for the Ki in test [1] and in test [2] were 27 nM and 8.5 nM, respectively. In addition, the EC50 in test [3] was above 10000 nM.
Take `CC(C)CC(c1ccc2c(cnn2-c2ccc(F)cc2)c1)C(C)(C)CNC(=O)N(C)C(C)(C)C` (centres unmarked) [Example 31, 1-tert-butyl-3-(3-(1-(4-fluorophenyl)-1H-indazol-5-yl)-2,2,5-trimethylhexyl)-1-methylurea]: the results for the Ki in test [1] and in test [2] were 19 nM and 28 nM, respectively. For the same compound, in test [3], the EC50 is 394 nM.
For `CC(C)CC(c1ccc2c(cnn2-c2ccc(F)cc2)c1)C(C)(C)CNC(=O)NC(C)(C)CN1CCCCC1` (centres unmarked) [Example 32, 1-(3-(1-(4-fluorophenyl)-1H-indazol-5-yl)-2,2,5-trimethylhexyl)-3-(2-methyl-1-(piperidin-1-yl)propan-2-yl)urea], in that order: 452 nM, 73 nM and above 10000 nM.
For `CC(C)CC(c1ccc2c(cnn2-c2ccc(F)cc2)c1)C(C)(C)CNC(=O)NC(C)C` (centres unmarked) [Example 34, 1-(3-(1-(4-fluorophenyl)-1H-indazol-5-yl)-2,2,5-trimethylhexyl)-3-isopropylurea], in that order: 7.1 nM, 1.1 nM and 129 nM.
For `CC(C)CC(c1ccc2c(cnn2-c2ccc(F)cc2)c1)C(C)(C)CNC(=O)OCC(F)(F)F` (centres unmarked) [Example 60, 2,2,2-trifluoroethyl 3-(1-(4-fluorophenyl)-1H-indazol-5-yl)-2,2,5-trimethylhexylcarbamate], the Ki in test [1] is 24 nM; in test [2], 41 nM. Moreover, the EC50 in test [3] was 234 nM.
In the case of `CC(C)(C(c1ccccc1)c1ccc2c(cnn2-c2ccc(F)cc2)c1)C(O)C1CC1` (centres unmarked) [Example 122, 1-cyclopropyl-3-(1-(4-fluorophenyl)-1H-indazol-5-yl)-2,2-dimethyl-3-phenylpropan-1-ol], the Ki in test [1] came to 34 nM; in test [2], 37 nM. Moreover, in test [3], the EC50 is above 10000 nM.
`CC(C)(COC(=O)NCC(F)(F)F)C(c1ccccc1)c1ccc2c(cnn2-c2ccc(F)cc2)c1` (centres unmarked) [Example 132, 3-(1-(4-Fluorophenyl)-1H-indazol-5-yl)-2,2-dimethyl-3-phenylpropyl 2,2,2-trifluoroethylcarbamate]: the Ki in test [1] is 28 nM. Further, in test [3], the EC50 was above 10000 nM.

By Ki is commonly meant a dissociation constant, usually derived from enzyme kinetics or from competition with a known ligand. As usually defined, the EC50 is the concentration at which the effect is half-maximal.

(Values after patent US8198311B2, “Modulators of glucocorticoid receptor, AP-1, and/or NF-κB activity and use thereof” (Bristol-Myers Squibb Company, priority 2006, dated 2012).)
